Measured values as given in US20110092487A1, “NOVEL 3,8-DIAZA-BICYCLO[3.2.1]OCTANE-AND 3,9-DIAZA-BICYCLO[3.3.1]-NONANE-3-CARBOXYLIC ACID ESTER DERIVATIVES AND THEIR USE AS MONOAMINE NEUROT[…]-UPTAKE INHIBITORS” (NeuroSearch A/S, priority 2008, published 2011).

What was measured:
Type in all cases: biochemical
[1] = molecular target: T1, noradrenaline (NA) reuptake in synaptosomes (Rattus norvegicus, UniProt Q63380); assay: Inhibition of NA reuptake in synaptosomes; settings: 3H-NA, read-out: NA-uptake IC50
T1 construct: in synaptosomes as described in WO 97/16451 (NeuroSearch A/S); from tissue
T1 sequence (Q63380 1-617): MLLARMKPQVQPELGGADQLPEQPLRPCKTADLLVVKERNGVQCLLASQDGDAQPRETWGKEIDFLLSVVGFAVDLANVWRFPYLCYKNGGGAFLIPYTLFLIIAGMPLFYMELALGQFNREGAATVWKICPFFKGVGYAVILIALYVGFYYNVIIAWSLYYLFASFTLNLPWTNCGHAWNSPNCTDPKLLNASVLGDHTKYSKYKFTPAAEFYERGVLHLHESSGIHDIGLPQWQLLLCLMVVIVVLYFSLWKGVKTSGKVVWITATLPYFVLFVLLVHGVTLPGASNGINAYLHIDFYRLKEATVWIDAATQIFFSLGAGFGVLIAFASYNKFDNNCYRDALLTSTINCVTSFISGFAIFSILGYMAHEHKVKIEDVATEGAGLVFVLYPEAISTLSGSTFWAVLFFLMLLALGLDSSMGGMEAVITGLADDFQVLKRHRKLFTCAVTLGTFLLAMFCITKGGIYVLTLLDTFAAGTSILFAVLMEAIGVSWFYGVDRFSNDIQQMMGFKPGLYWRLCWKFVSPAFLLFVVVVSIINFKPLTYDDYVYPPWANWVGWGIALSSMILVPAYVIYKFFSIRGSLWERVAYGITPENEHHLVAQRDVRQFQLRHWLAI
From the text: (§1) Compounds of the invention may be tested for their ability to inhibit reuptake of the monoamines dopamine, noradrenaline and serotonin in synaptosomes e.g. such as described in WO 97/30997 (NeuroSearch NS) or WO 97/16451 (NeuroSearch NS). Based on the balanced activity observed in these tests the compound of the invention is considered useful for the treatment, prevention or alleviation of a disease or a disorder or a condition of a mammal, including a human, which disease, disorder or condition is responsive to inhibition of monoamine neurotransmitter re-uptake in the central nervous system.
(§2) Compounds were tested for their ability to inhibit the reuptake of the monoamine neurotransmitters dopamine (DA) noradrenaline (NA) and serotonine (5-HT) in synaptosomes as described in WO 97/16451 (NeuroSearch A/S).
(§3) The test values are given as IC50 (the concentration (μM) of the test substance which inhibits the specific binding of ^3H-DA, ^3H-NA, or ^3H-5-HT by 50%).

[2] = molecular target: T2, serotonine (5-HT) reuptake in synaptosomes (Rattus norvegicus, UniProt P31652); assay: Inhibition of 5-HT reuptake in synaptosomes; settings: 3H-5-HT, read-out: 5-HT-uptake IC50
T2 construct: in synaptosomes as described in WO 97/16451 (NeuroSearch A/S); from tissue
T2 sequence (P31652 whole entry): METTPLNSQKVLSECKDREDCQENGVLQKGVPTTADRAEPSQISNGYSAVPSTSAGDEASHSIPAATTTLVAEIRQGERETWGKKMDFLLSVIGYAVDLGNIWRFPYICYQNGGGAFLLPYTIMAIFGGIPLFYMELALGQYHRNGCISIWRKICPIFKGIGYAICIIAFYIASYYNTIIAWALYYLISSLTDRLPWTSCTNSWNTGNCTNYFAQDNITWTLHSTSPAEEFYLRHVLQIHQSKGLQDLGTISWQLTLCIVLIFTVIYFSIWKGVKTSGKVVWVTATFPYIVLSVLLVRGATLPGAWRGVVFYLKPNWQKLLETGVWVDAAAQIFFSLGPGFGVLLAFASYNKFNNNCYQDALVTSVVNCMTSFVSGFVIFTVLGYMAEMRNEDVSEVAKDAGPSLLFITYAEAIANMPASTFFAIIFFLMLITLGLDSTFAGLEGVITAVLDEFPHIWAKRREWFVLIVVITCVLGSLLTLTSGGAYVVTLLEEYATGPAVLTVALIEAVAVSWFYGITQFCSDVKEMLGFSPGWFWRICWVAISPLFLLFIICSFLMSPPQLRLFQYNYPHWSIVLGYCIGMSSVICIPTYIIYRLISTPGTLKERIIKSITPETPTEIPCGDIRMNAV
From the text: as §1, §2, §3

[3] = molecular target: T3, dopamine (DA) reuptake in synaptosomes (Rattus norvegicus, UniProt P23977); assay: Inhibition of DA reuptake in synaptosomes; settings: 3H-DA, read-out: DA-uptake IC50
T3 construct: in synaptosomes as described in WO 97/16451 (NeuroSearch A/S); from tissue
T3 sequence (P23977 whole entry): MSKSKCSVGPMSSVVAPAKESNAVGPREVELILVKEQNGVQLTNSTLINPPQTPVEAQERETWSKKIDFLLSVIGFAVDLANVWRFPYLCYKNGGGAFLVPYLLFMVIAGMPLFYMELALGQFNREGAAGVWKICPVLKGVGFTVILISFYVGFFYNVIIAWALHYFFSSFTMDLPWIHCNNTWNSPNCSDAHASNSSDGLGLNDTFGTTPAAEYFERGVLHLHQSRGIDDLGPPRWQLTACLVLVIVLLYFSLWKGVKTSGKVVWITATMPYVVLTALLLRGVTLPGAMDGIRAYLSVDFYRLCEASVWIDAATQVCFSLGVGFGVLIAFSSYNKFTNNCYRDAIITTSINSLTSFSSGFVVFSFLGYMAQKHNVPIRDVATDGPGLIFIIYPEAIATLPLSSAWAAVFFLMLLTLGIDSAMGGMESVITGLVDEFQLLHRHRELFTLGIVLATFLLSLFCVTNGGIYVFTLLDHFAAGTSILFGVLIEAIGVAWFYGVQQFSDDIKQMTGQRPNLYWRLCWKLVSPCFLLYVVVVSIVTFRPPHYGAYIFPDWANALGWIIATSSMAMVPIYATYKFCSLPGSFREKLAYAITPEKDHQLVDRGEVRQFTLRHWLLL
From the text: as §1, §2, §3

Structure (SMILES)	IC50 [1]	IC50 [2]	IC50 [3]
CN1C2CCCC1CN(C(=O)Oc1ccc3ccc(=O)oc3c1)C2 [9-Methyl-3,9-diaza-bicyclo[3.3.1]nonane-3-carboxylic acid 2-oxo-2H-chromen-7-yl ester]	1600 nM	40 nM	610 nM
O=C(Oc1ccc2ccc(=O)oc2c1)N1CC2CCC(C1)N2 [3,8-Diaza-bicyclo[3.2.1]octane-3-carboxylic acid 2-oxo-2H-chromen-7-yl ester]	620 nM	27 nM	92 nM
COc1ccc2cc(OC(=O)N3CC4CCCC(C3)N4C)ccc2c1 [9-Methyl-3,9-diaza-bicyclo[3.3.1]nonane-3-carboxylic acid 6-methoxynaphthalen-2-yl ester]	24 nM	340 nM	30 nM
O=C(Oc1ccc(Cl)c(Cl)c1)N1CC2CCCC(C1)N2 [3,9-Diaza-bicyclo[3.3.1]nonane-3-carboxylic acid 3,4-dichloro-phenyl ester]	2000 nM	7.8 nM	> 1000 nM
